Assay results from patent US12215354B2, “Differentiation of human embryonic stem cells into single hormonal insulin positive cells” (Janssen Biotech, Inc., priority 2011, dated 2025).

System: human embryonic stem cell line H1
Assay: Immune staining for insulin, glucagon and somatostatin hormones at end of stage 5 (Example 13)
Assay type: cell-based
Conditions: percentage of the entire hormone count at S5 day 3
Protocol: Cells of the human embryonic stem cell line H1 at various passages (passage 40 to passage 52) were seeded as single cells at a density of 100,000 cells/cm^2 on MATRIGEL™ (1:30 dilution) coated dishes in mTesr™1 media and 10 μM of Y27632. Forty eight hours post seeding, cultures were differentiated into pancreatic endocrine lineage as follows: • a. Stage 1 (Definitive Endoderm (DE)−3 days): Prior to start of DE, the cultures were washed and incubated with incomplete PBS (no Mg or Ca) for 30 seconds followed by addition of the stage 1 media. Human embryonic stem cells cultured as single cells on MATRIGEL™-coated dishes were treated with MCDB-131 medium supplemented with 0.1% fatty acid-free BSA, 0.0012 g/ml sodium bicarbonate, 1× GLUTAMAX™, 5 mM D-Glucose, 100 ng/ml GDF8, 1 μM MCX compound (GSK3B inhibitor) for one day. Cells were then treated with MCDB-131 medium supplemented with 0.1% fatty acid-free BSA, sodium bicarbonate, GLUTAMAX™, extra 5 mM glucose, 100 ng/ml GDF8, and 100 nM MCX compound for day two followed by an additional day in MCDB-131 medium supplemented with 0.1% fatty acid-free BSA, 0.0012 g/ml sodium bicarbonate, 1× GLUTAMAX™, 5 mM Glucose, and 100 ng/ml GDF8. • b. Stage 2 (Primitive gut tube−2 days): Cells were treated with MCDB-131 medium supplemented with 0.1% fatty acid-free BSA, 0.0012 g/ml sodium bicarbonate, 1× GLUTAMAX™, 5 mM D-Glucose, 0.25 mM ascorbic acid, and 25 ng/ml FGF7 and for two days, then • MCDB131supplemented with 1:200 dilution of ITS-X, 2.5 mM Glucose, 1× GLUTAMAX™, 0.0015 g/ml sodium bicarbonate, 2% fatty acid-free BSA, 10 ng/ml Activin A, 25 ng/ml FGF7, 0.25 mM ascorbic acid, 0.25 μM SANT-1, 1 μM RA, 200 nM TPB, 100 nM LDN-193189 for day 1, followed by treatment with tMCDB131supplemented with 1:200 dilution of ITS-X, 2.5 mM Glucose, 1× GLUTAMAX™, 0.0015 g/ml sodium bicarbonate, 2% fatty acid-free BSA, 10 ng/ml Activin A, 25 ng/ml FGF7, 0.25 mM ascorbic acid, 0.25 μMSANT-1, 1 μM RA, 200 nM TPB, 10 nM LDN-193189 for an additional day. • d. […]

O=C1O[C@H]([C@@H](O)CO)C(O)=C1O [ascorbic acid]
% Polyhormonal (treatment at S5): 44% | % glucagon + plus % somatostatin+ (treatment at S5): 44% | % single hormonal Insulin+ (treatment at S5 (0.1 mM ascorbic acid, 50 nM RA, 0.25 μM SANT-1, 1 μM Alk5 inh)): 12%
